Experimental data published in patent US20230407243A1, “GENETIC PLATFORM TO INVESTIGATE THE FUNCTIONS OF BACTERIAL DRUG EFFLUX PUMPS” (priority 2022, published 2023).

Assays:
Assay type in all cases: cell-based, Escherichia coli
[1] = test system: EKO-35 araC::acrBD408A; assay: MIC susceptibility profiling, efflux platform
Outline: (§1)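 Each compound was serially diluted twofold, in duplicate, and challenged with a 1/2000 dilution of PBS-washed cells (OD600 ~1.0) in MHB II. Plates were shaken at 37 °C for 18 h and OD600 was read at room temperature, with the baseline subtracted.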

[2] = test system: EKO-35 araC::acrEF; assay: MIC susceptibility profiling, efflux platform
Outline: as §1

[3] = test system: EKO-35 araC::mdtBC; assay: MIC susceptibility profiling, efflux platform
Outline: as §1

[4] = test system: ΔtolC-Pore; assay: microbe, parasite or virus in culture; conditions: technical duplicate
Outline: (§2)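 E. coli strains carrying a genomically integrated constitutive fhuA ΔC/Δ4L pore were grown 18 h in LB at 37 °C, then diluted 1/2000 in MHB II from OD600 ~1.0. Compounds were tested in duplicate, 2-fold serial titration, for 18 h at 37 °C with shaking. MIC came from OD600 with the pre-incubation background subtracted.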

[5] = test system: wild-type (WT) K-12-Pore; assay: microbe, parasite or virus in culture; conditions: technical duplicate
Outline: as §2

[6] = test system: EKO-35 araC::acrBD408A Pore; assay: MIC susceptibility profiling, porinated efflux platform
Outline: as §2

[7] = test system: EKO-35 araC::mdtBC Pore; assay: as above
Outline: as §2

[8] = test system: EKO-35 araC::acrEF Pore; assay: as above
Outline: as §2

[9] = test system: EKO-35 araC::macAB Pore; assay: as above
Outline: as §2

[10] = test system: EKO-35 araC::mdtEF Pore; assay: as above
Outline: as §2

[11] = test system: EKO-35 araC::emrAB Pore; assay: as above
Outline: as §2

[12] = test system: EKO-35 araC::mexCD Pore; assay: as above
Outline: as §2

[13] = test system: EKO-35 araC::acrB Pore; assay: as above
Outline: as §2

[14] = test system: EKO-35 araC::emrKY Pore; assay: as above
Outline: as §2

[15] = test system: EKO-35 araC::acrD Pore; assay: as above
Outline: as §2

[16] = test system: EKO-35-Pore; assay: MIC susceptibility profiling, porinated strain
Outline: as §2

[17] = test system: E. coli ΔtolC; assay: microbe, parasite or virus in culture; conditions: technical duplicate
Outline: as §1

[18] = test system: E. coli EKO-35; assay: microbe, parasite or virus in culture
Outline: as §1

[19] = test system: wild-type E. coli K-12 str. BW25113; assay: microbe, parasite or virus in culture; conditions: technical duplicate
Outline: as §1

[20] = Table 13B, non-porinated, technical duplicate
[21] = Table 13A, non-porinated, technical duplicate
[22] = Table 14A, porinated, technical duplicate

Q: What does the source list for `Nc1ccccc1SCc1nc(-c2ccc(Cl)cc2)no1` [compound 16]?
A: Fold change of MICs ([1]; EKO-35 araC::acrBD408A compared to EKO-35): 1 fold; Minimum Inhibitory Concentration, EKO-35 araC::acrBD408A [1, 20]: 10 µg/mL; Fold change of MICs ([2]; EKO-35 araC::acrEF compared to EKO-35): 32 fold; Minimum Inhibitory Concentration, EKO-35 araC::acrEF [2, 21]: 320 µg/mL; Fold change of MICs ([3]; EKO-35 araC::mdtBC compared to EKO-35): 1 fold; Minimum Inhibitory Concentration, EKO-35 araC::mdtBC [3, 20]: 5 µg/mL; Minimum inhibitory concentration (MIC), Pore ΔtolC ([4]; Table 10, with pore): 5 µg/mL; Minimum inhibitory concentration, ΔtolC-Pore ([4]; Table 14A, porinated): 5 µg/mL; Minimum inhibitory concentration (MIC), Pore K-12 ([5]; Table 10, with pore): 160 µg/mL; Minimum inhibitory concentration, K-12 (WT)-Pore ([5]; Table 14A, porinated): 160 µg/mL; Fold changes of MICs ([6]; EKO-35 araC::acrBD408A Pore compared to EKO-35-Pore): 1 fold; Minimum inhibitory concentration ([6]; EKO-35 araC::acrBD408A Pore, technical duplicate): 5 µg/mL; Fold changes of MICs ([7]; EKO-35 araC::mdtBC Pore compared to EKO-35-Pore): 1 fold; Minimum inhibitory concentration ([7]; EKO-35 araC::mdtBC Pore, technical duplicate): 5 µg/mL; Fold changes of MICs ([8]; EKO-35 araC::acrEF Pore compared to EKO-35-Pore): 16 fold; Minimum inhibitory concentration, EKO-35 araC::acrEF Pore [8, 22]: 80 µg/mL; Fold changes of MICs ([9]; EKO-35 araC::macAB Pore compared to EKO-35-Pore): 1 fold; Minimum inhibitory concentration ([9]; EKO-35 araC::macAB Pore, technical duplicate): 5 µg/mL; Fold changes of MICs ([10]; EKO-35 araC::mdtEF Pore compared to EKO-35-Pore): 16 fold; Minimum inhibitory concentration, EKO-35 araC::mdtEF Pore [10, 22]: 80 µg/mL; Fold changes of MICs ([11]; EKO-35 araC::emrAB Pore compared to EKO-35-Pore): 16 fold; Minimum inhibitory concentration ([11]; EKO-35 araC::emrAB Pore, technical duplicate): 80 µg/mL; Fold changes of MICs ([12]; EKO-35 araC::mexCD Pore compared to EKO-35-Pore): 16 fold; Minimum inhibitory concentration ([12]; EKO-35 araC::mexCD Pore, technical duplicate): 80 µg/mL; Fold changes of MICs ([13]; EKO-35 araC::acr-B Pore compared to EKO-35-Pore): 32 fold; Minimum inhibitory concentration, EKO-35 araC::acrB Pore [13, 22]: 160 µg/mL; Fold changes of MICs ([14]; EKO-35 araC::emrKY Pore compared to EKO-35-Pore): 1 fold; Minimum inhibitory concentration ([14]; EKO-35 araC::emrKY Pore, technical duplicate): 2.5 µg/mL; Fold changes of MICs ([15]; EKO-35 araC::acrD Pore compared to EKO-35-Pore): 1 fold; Minimum inhibitory concentration, EKO-35 araC::acrD Pore [15, 22]: 5 µg/mL; Fold changes of MICs ([16]; EKO-35-Pore compared to EKO-35-Pore (reference)): 1 fold; Minimum inhibitory concentration (MIC), Pore EKO-35 ([16]; Table 10, with pore, technical duplicate): 5 µg/mL; Minimum inhibitory concentration, EKO-35-Pore [16, 22]: 5 µg/mL; Minimum inhibitory concentration (MIC), ΔtolC ([17]; Table 10, without pore): 10 µg/mL; Minimum Inhibitory Concentration, ΔtolC ([17]; Table 13A, non-porinated): 10 µg/mL; Fold change of MICs ([18]; EKO-35 compared to EKO-35 (reference)): 1 fold; Minimum inhibitory concentration (MIC), EKO-35 ([18]; Table 10, without pore, technical duplicate): 10 µg/mL; Minimum Inhibitory Concentration, EKO-35 [18, 21]: 10 µg/mL; susceptibility of EKO-35 to the compound ([18]; synthetic efflux substrates of FIG. 12): susceptible; Minimum inhibitory concentration (MIC), K-12 ([19]; Table 10, without pore): 320 µg/mL; Minimum Inhibitory Concentration, K-12 ([19]; Table 13A, non-porinated): 320 µg/mL
